Measurements as given in patent US10195156B2, “Compounds and compositions for intracellular delivery of agents” (ModernaTX, Inc., priority 2015, dated 2019).
Like-named read-outs stand apart in the source and are kept apart here.

How the values were obtained:
[1] = Lipid levels in liver and spleen 48 hours after administration; format: in vivo, rats; details: 48 hours after administration; for concentration at 48 h: Sprague-Dawley, rat, intravenous
Description: Formulations were administered intravenously to rats (n=3 or 6) at a dosage of 0.2 mg/kg or 0.5 mg/kg (mpk) and hEPO levels measured at 3, 6, and 24 hour time points. After the 48 hour time point, livers and spleens were harvested and frozen.
The amount of lipid in the liver and spleen 48 hours after administration of a nanoparticle composition was also measured. […] In contrast, approximately 60% of doses including MC3 or Compound 22 remained in the liver after 48 hours. Less than 3% of the dose remained in the spleen for each composition tested.

[2] = pKa of nanoparticle compositions; format: physicochemical
[3] = Concentration of RNA in nanoparticle composition (ultraviolet-visible spectroscopy); format: physicochemical; details: Table 5; hEPO mRNA; 40:20:38.5:1.5 Lipid:DOPE:Chol:PEG-DMG
Description: Ultraviolet-visible spectroscopy can be used to determine the concentration of a therapeutic and/or prophylactic agent (e.g., RNA) in nanoparticle compositions. 100 μL of the diluted formulation in 1×PBS is added to 900 μL of a 4:1 (v/v) mixture of methanol and chloroform. After mixing, the absorbance spectrum of the solution is recorded, for example, between 230 nm and 330 nm on a DU 800 spectrophotometer (Beckman Coulter, Beckman Coulter, Inc., Brea, Calif.). The concentration of therapeutic and/or prophylactic agent in the nanoparticle composition can be calculated based on the extinction coefficient of the therapeutic and/or prophylactic agent used in the composition and on the difference between the absorbance at a wavelength of, for example, 260 nm and the baseline value at a wavelength of, for example, 330 nm.

hEPO mRNA expression = assay: Expression of hEPO in rats after intravenous administration; format: in vivo; details: for hEPO (pg/mL) 3 hours / hEPO (pg/mL) 6 hours / hEPO (pg/mL) 24 hours: Table 6, rats, i.v., 0.2 mg/kg or 0.5 mg/kg; for Lipid/MC3 hEPO S.D. (rats): hEPO expression relative to MC3, S.D. rats, intravenous
Description: PBS (phosphate buffered saline) is used as control.
Formulations were prepared according to Table 5 and included mRNA encoding hEPO.
[…] After the 48 hour time point, livers and spleens were harvested and frozen.

[4] = Particle size and polydispersity index of nanoparticle compositions (Zetasizer Nano ZS); format: physicochemical
Procedure, shortened: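 Zetasizer Nano ZS; samples in 1×PBS; read-out: particle size plus polydispersity index.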

[5] = Encapsulation efficiency of RNA (QUANT-IT RIBOGREEN RNA assay); format: physicochemical
Procedure, shortened: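 RiboGreen fluorescence (ex ~480, em ~520 nm) measured after 15 min at 37 °C on samples at ~5 μg/mL in TE, pH 7.5, ± 2% Triton X-100 solution. After blank subtraction, free RNA is given as intact-sample signal divided by disrupted-sample signal.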

[6] = liver, read-out: Lipid in liver
[7] = spleen, read-out: Lipid in spleen
[8] = Table 1, # formulated with hEPO mRNA
[9] = Table 5, hEPO mRNA, 40:20:38.5:1.5 Lipid:DOPE:Chol:PEG-DMG

concentration at 48 h [1, 6] [ng/g] | concentration at 48 h [1, 7] [ng/g] | % remaining dose in liver ([1]; liver) [%] | dose remaining in the liver after 48 hours ([1]; liver) | % remaining dose in spleen ([1]; spleen) [%] | pKa [2, 8] | pKa [2, 9] | Conc. [3] [µg/mL] | PDI [4, 8] | Size (nm) [4, 8] [nm] | PDI [4, 9] | Size (nm) [4, 9] [nm] | EE (%) [5, 8] [%] | EE (%) [5, 9] [%] | SMILES | hEPO (pg/mL) 3 hours (hEPO mRNA expression) [pg/mL] | hEPO (pg/mL) 6 hours (hEPO mRNA expression) [pg/mL] | hEPO (pg/mL) 24 hours (hEPO mRNA expression) [pg/mL] | Lipid/MC3 hEPO S.D. (rats) (hEPO mRNA expression)
36800 | 3890 | 58.7 | approximately 60% | 0.41 | 6.15 | 6.153 | 564.97 | 0.130 | 75.4 | 0.13 | 75.4 | 98.3 | 98.29 | CCCCCCCCCCCCN(CCCCCCCCCCCC)CCN(CCCCCCCCCCCC)CCN1CCN(CCN(CCCCCCCC)CCCCCCCC)CC1 [Compound 22, N^1-(2-(4-(2-(Dioctylamino)ethyl)piperazin-1-yl)ethyl)-N^1,N^2,N^2-tridodecylethane-1,2-diamine] | 181627 | 267680 | 75571 | 0.20
3070 | 971 | 4.22 | – | 0.089 | 6.32 | 6.323 | 713.00 | 0.120 | 100.3 | 0.12 | 100.3 | 90.2 | 90.15 | CCCCCCCCCCCCN(CCCCCCCCCCCC)CCN(CCCCCCCCCCCC)CCN1CCN(CCN(CCCCCCCCCCCC)CCCCCCCCCCCC(=O)OC)CC1 [Compound 15, Methyl 12-((2-(4-(2-((2-(didodecylamino)ethyl)(dodecyl)amino)ethyl)piperazin-1-yl)ethyl)(dodecyl)amino)dodecanoate] | 103773 | 125320 | 67965 | 0.095
